# Assay results from ChEMBL document CHEMBL3885881, “DrugMatrix”.
# Species: Rattus norvegicus
# Assay: DrugMatrix - Regimen: Daily Repeat
# Format: toxicity, organism-based, Sprague-Dawley
# Design: regimen Daily Repeat, gender Male, age 6-8 weeks
# Settings: in vivo, po, route oral GAVAGE, […]; for ABSOLUTE BASOPHIL / ABSOLUTE EOSINOPHIL / ABSOLUTE LYMPHOCYTE / ABSOLUTE MONOCYTE / ABSOLUTE SEGMENTED NEUTROPHIL / BASOPHIL / EOSINOPHIL / ERYTHROCYTE COUNT / HEMATOCRIT / HEMOGLOBIN / LEUKOCYTE COUNT / LYMPHOCYTE / MEAN CORPUSCULAR HEMOGLOBIN / MEAN CORPUSCULAR HEMOGLOBIN CONCENTRATION / MEAN CORPUSCULAR VOLUME / MONOCYTE / NEUTROPHIL / NUCLEATED RED BLOOD CELLS / PLATELET COUNT: tissue Blood; for ALANINE AMINOTRANSFERASE / ALBUMIN / ALKALINE PHOSPHATASE / ASPARTATE AMINOTRANSFERASE / BLOOD UREA NITROGEN / CARBON DIOXIDE / CHLORIDE / CHOLESTEROL / CREATINE PHOSPHOKINASE / CREATININE / GLUCOSE / LACTATE DEHYDROGENASE / LIPASE / PHOSPHORUS / POTASSIUM / SODIUM / TOTAL BILIRUBIN / TOTAL PROTEIN / URIC ACID: tissue Plasma
# [1] = 0 mg/kg, 72 h, dose level Control, time 3 day
# [2] = 0 mg/kg, 120 h, dose level Control, time 5 day
# [3] = 30 mg/kg, 72 h, dose level Low, time 3 day
compound,measurement,setting,value
COC1=CC(=O)C[C@@H](C)[C@]12Oc1c(Cl)c(OC)cc(OC)c1C2=O [GRISEOFULVIN],ABSOLUTE BASOPHIL,[1],0 CELLS/uL
same,ABSOLUTE EOSINOPHIL,[1],0 CELLS/uL
same,ABSOLUTE LYMPHOCYTE,[1],14687.67 CELLS/uL
same,ABSOLUTE MONOCYTE,[1],164 CELLS/uL
same,ABSOLUTE SEGMENTED NEUTROPHIL,[1],1748.33 CELLS/uL
same,BASOPHIL,[1],0%
same,EOSINOPHIL,[1],0%
same,ERYTHROCYTE COUNT,[1],5.51 x10E6/uL
same,HEMATOCRIT,[1],33.68%
same,HEMOGLOBIN,[1],13.4 G/DL
same,LEUKOCYTE COUNT,[1],16.6 x10E3/uL
same,LYMPHOCYTE,[1],88.83%
same,MEAN CORPUSCULAR HEMOGLOBIN,[1],24.47 pg
same,MEAN CORPUSCULAR HEMOGLOBIN CONCENTRATION,[1],39.82 G/DL
same,MEAN CORPUSCULAR VOLUME,[1],61.23 fL
same,MONOCYTE,[1],0.83%
same,NEUTROPHIL,[1],10.33%
same,NUCLEATED RED BLOOD CELLS,[1],0 /100WBC
same,PLATELET COUNT,[1],1329.67 x10E3/uL
same,ALANINE AMINOTRANSFERASE,[1],61.33 u/L
same,ALBUMIN,[1],4.18 G/DL
same,ALKALINE PHOSPHATASE,[1],332.5 u/L
same,ASPARTATE AMINOTRANSFERASE,[1],98.33 u/L
same,BLOOD UREA NITROGEN,[1],15.83 mg/dL
same,CARBON DIOXIDE,[1],27.83 mmol/L
same,CHLORIDE,[1],100 MEQ/L
same,CHOLESTEROL,[1],76.17 mg/dL
same,CREATINE PHOSPHOKINASE,[1],729.17 u/L
same,CREATININE,[1],0.21 mg/dL
same,GLUCOSE,[1],151.83 mg/dL
same,LACTATE DEHYDROGENASE,[1],484.67 u/L
same,LIPASE,[1],10 u/L
same,PHOSPHORUS,[1],11.3 mg/dL
same,POTASSIUM,[1],6.1 MEQ/L
same,SODIUM,[1],142.9 MEQ/L
same,TOTAL BILIRUBIN,[1],0.23 mg/dL
same,TOTAL PROTEIN,[1],5.68 G/DL
same,URIC ACID,[1],1.75 mg/dL
same,ABSOLUTE BASOPHIL,[2],0 CELLS/uL
same,ABSOLUTE EOSINOPHIL,[2],58.67 CELLS/uL
same,ABSOLUTE LYMPHOCYTE,[2],15950.83 CELLS/uL
same,ABSOLUTE MONOCYTE,[2],172.5 CELLS/uL
same,ABSOLUTE SEGMENTED NEUTROPHIL,[2],2551.33 CELLS/uL
same,BASOPHIL,[2],0%
same,EOSINOPHIL,[2],0.33%
same,ERYTHROCYTE COUNT,[2],5.5 x10E6/uL
same,HEMATOCRIT,[2],34.05%
same,HEMOGLOBIN,[2],13.42 G/DL
same,LEUKOCYTE COUNT,[2],18.73 x10E3/uL
same,LYMPHOCYTE,[2],84.5%
same,MEAN CORPUSCULAR HEMOGLOBIN,[2],24.42 pg
same,MEAN CORPUSCULAR HEMOGLOBIN CONCENTRATION,[2],39.42 G/DL
same,MEAN CORPUSCULAR VOLUME,[2],61.97 fL
same,MONOCYTE,[2],1%
same,NEUTROPHIL,[2],14.17%
same,NUCLEATED RED BLOOD CELLS,[2],0.33 /100WBC
same,PLATELET COUNT,[2],1143.17 x10E3/uL
same,ALANINE AMINOTRANSFERASE,[2],57 u/L
same,ALBUMIN,[2],4.17 G/DL
same,ALKALINE PHOSPHATASE,[2],347.33 u/L
same,ASPARTATE AMINOTRANSFERASE,[2],93.67 u/L
same,BLOOD UREA NITROGEN,[2],15.67 mg/dL
same,CARBON DIOXIDE,[2],27.17 mmol/L
same,CHLORIDE,[2],104.33 MEQ/L
same,CHOLESTEROL,[2],69.5 mg/dL
same,CREATINE PHOSPHOKINASE,[2],317.17 u/L
same,CREATININE,[2],0.2 mg/dL
same,GLUCOSE,[2],162.33 mg/dL
same,LACTATE DEHYDROGENASE,[2],408.67 u/L
same,LIPASE,[2],10.17 u/L
same,PHOSPHORUS,[2],11.08 mg/dL
same,POTASSIUM,[2],6.36 MEQ/L
same,SODIUM,[2],146.07 MEQ/L
same,TOTAL BILIRUBIN,[2],0.22 mg/dL
same,TOTAL PROTEIN,[2],5.92 G/DL
same,URIC ACID,[2],1.47 mg/dL
same,ABSOLUTE BASOPHIL,[3],0 CELLS/uL
same,ABSOLUTE EOSINOPHIL,[3],0 CELLS/uL
same,ABSOLUTE LYMPHOCYTE,[3],15609 CELLS/uL
same,ABSOLUTE MONOCYTE,[3],50.67 CELLS/uL
same,ABSOLUTE SEGMENTED NEUTROPHIL,[3],2173.67 CELLS/uL
same,BASOPHIL,[3],0%
same,EOSINOPHIL,[3],0%
same,ERYTHROCYTE COUNT,[3],5.42 x10E6/uL
same,HEMATOCRIT,[3],34.33%
same,HEMOGLOBIN,[3],13.33 G/DL
same,LEUKOCYTE COUNT,[3],17.83 x10E3/uL
same,LYMPHOCYTE,[3],87.67%
same,MEAN CORPUSCULAR HEMOGLOBIN,[3],24.6 pg
same,MEAN CORPUSCULAR HEMOGLOBIN CONCENTRATION,[3],38.9 G/DL
same,MEAN CORPUSCULAR VOLUME,[3],63.3 fL
same,MONOCYTE,[3],0.33%
same,NEUTROPHIL,[3],12%
same,NUCLEATED RED BLOOD CELLS,[3],0 /100WBC
same,PLATELET COUNT,[3],1271.33 x10E3/uL
same,ALANINE AMINOTRANSFERASE,[3],68.33 u/L
same,ALBUMIN,[3],3.87 G/DL
same,ALKALINE PHOSPHATASE,[3],322.67 u/L
same,ASPARTATE AMINOTRANSFERASE,[3],105.67 u/L
same,BLOOD UREA NITROGEN,[3],16 mg/dL
same,CARBON DIOXIDE,[3],30.33 mmol/L
same,CHLORIDE,[3],103 MEQ/L
same,CHOLESTEROL,[3],72.67 mg/dL
same,CREATINE PHOSPHOKINASE,[3],481 u/L
same,CREATININE,[3],0.24 mg/dL
same,GLUCOSE,[3],139.67 mg/dL
same,LACTATE DEHYDROGENASE,[3],535 u/L
same,LIPASE,[3],10 u/L
same,PHOSPHORUS,[3],11.37 mg/dL
same,POTASSIUM,[3],6.77 MEQ/L
same,SODIUM,[3],145.27 MEQ/L
same,TOTAL BILIRUBIN,[3],0.2 mg/dL
same,TOTAL PROTEIN,[3],5.3 G/DL
same,URIC ACID,[3],1.6 mg/dL
